From patent publication US11426454B2 (priority 2018, dated 2022) come the findings set out here.

In the experiment the test system is live BCG bacteria. Type of experiment: in vivo, C57BL/6 mice. To be noted: 0.1 mL (approximately 10^6 CFU/mL) under the armpits; isoniazid by gavage; 2×10^6 live BCG challenge one week later; week 4.

Take `NNC(=O)c1ccncc1` [Isoniazid, isoniazid]: the “Colony count of lung tissues (CFU)” value was 34000 ± 13115 CFU and the “Colony count of spleen tissues (CFU)” value is listed as 6733 ± 2969 CFU.
